Laboratory results as given in patent US10342806B2, “Hormone treatment for age-related hearing loss-presbycusis” (priority 2014, dated 2019).

What was measured:
[1] = tested on: SGK1 and Nedd4-2; test: SGK1 and Nedd4-2 phosphorylation in HT-29 cells, Western blot; format: cell-based, human; settings: ALD 1 μM, GSK 650394 50 μM, 9 h
Experimental: FIG. 25 is a blot showing ALD modulation of NKCC1 via the ALD-SGK1-Nedd4-2 pathway. HT-29 cells were treated with ALD (1 μM) or ALD (1 μM)+GSK650394 (50 μM) for 9 h. Cell lysates were analyzed by Western blot as indicated. Blots are representative of 3 independent experiments. Left: controls. Middle: ALD increases the phosphorylations of SGK1 and Nedd4-2, concomitantly there is an increased induction of NKCC1 protein expression (1st row).
Western blot. Cell lysates were prepared in RIPA buffer (Pierce 89901; Thermo Scientific, Waltham, Mass.) with protease inhibitor cocktail (78430; Thermo Scientific). Cell samples were homogenized in buffer, followed by centrifugation at 2,000 rpm for 10 min at 4° C. Supernatants were subjected to Western blot analysis by loading 200 μg of protein per lane, after the protein concentrations were determined by Bradford protein assay. Proteins were fractionated by SDS-PAGE gel electrophoresis and transferred to a PVDF blotting membrane (Whatman, Piscataway, N.J.). The blot was incubated with primary antibodies against β-actin and Na—K-2C1 cotransport protein (Cell Signaling, Danvers Mass.); primary antibodies for p-SGK1, SGK1, pNedd4-2, and Nedd4-2 were utilized (concentration 1:1,000). The secondary antibody was horseradish peroxidaseconjugated goat anti-rabbit IgG (1:2,000; Cell Signaling).

[2] = tested on: NKCC1; test: Tl-uptake in single HT-29 cells (FluxOR) for NKCC1 activity; format: cell-based, human; settings: 24 single HT-29 cells per condition
Excerpt: Tl-uptake in single cells for the detection of NKCC1 activity. To measure NKCC1 activity, we used a fluorescence assay to assess cotransporter activity in single isolated HT-29 cells (Delpire & Austin, Kinase regulation of Na^+—K^+-2Cl^− cotransport in primary afferent neurons. J Physiol 588: 3365-3373, 2010, Geng, et al., The Ste20 kinases SPAK and OSR1 regulate NKCC1 function in sensory neurons. J Biol Chem 284: 14020-14028, 2009, Weaver, et al., A thallium-sensitive, fluorescence-based assay for detecting and characterizing potassium channel modulators in mammalian cells. J Biomol Screen 9: 671-677, 2004). HT-29 cells were incubated at 37° C./5% CO2 for 24 h before use. […] For the detection of fluorescence, the preincubation solution was removed, and the cells were treated with a 340.5 mosM hypertonic stimulus solution containing the following (in mM): (2.8 TISO4, 140 NaCl, 2 KCl, 2 CaCl2, 0.8 MgSO4, 5 glucose, 20 HEPES, 27 sucrose, 1 ouabain, and 2.7 probenecid) in the presence or absence of 20 μM bumetanide. […] FluxOR fluorescence (excitation/emission: 488/525 nm) was recorded after 90 s upon addition of 2.8 mM […] to the external medium. […]
Influence of ALD on NKCC1 transporter activity. […] To test this hypothesis, a more efficient and sensitive method, fluorescence Ion flux assays was adopted to measure NKCC1 transporter activity. […]

[3] = Tail-cuff plethysmography of blood pressure; format: in vivo, mouse; settings: 0.0016 mg/day pellet, measured at 2 and 4 months
Experimental: (§1) FIG. 27(A) is graph showing the tail-cuff plethysmography of blood pressure for ALD treatments of 60 days and 120 days, compared to middle-age control mice. Diastolic blood pressures were measured for middle-aged (20-21 mon) CBA/CaJ mice and middle-age ALD treated (0.0016 mg/day continuous release through 120 days, one pellet for 60 days and subsequently a second pellet for 60 days) mice, each group, n=5. Pressures were taken at 60 and 120 days and compared to the middle-age control animals. Mean±SD for each group.
as §1, with “27(B)” for “27(A)”, “is a” for “is”, “Systolic” for “Diastolic”
During treatment, blood pressures were measured for the mice at 2 and 4 months after start of treatment.

C[C@]12CCC(=O)C=C1CC[C@@H]1[C@@H]2[C@@H](O)C[C@]2(C=O)[C@@H](C(=O)CO)CC[C@@H]12 [ALD, aldosterone]
phosphorylation of SGK1 and Nedd4-2 [1]: increases the phosphorylation of SGK1 and Nedd4-2 | bumetanide-sensitive Tl+ uptake fluorescence [2]: marked increase in fluorescence | diastolic or systolic blood pressure [3]: neither aging nor the hormone treatment appeared to affect either diastolic or systolic blood pressure
